Read-outs that look alike come from different tables or passages of the source.
Legend:
ALK = target: T1, ALK (Homo sapiens, UniProt Q9UM73); test: ALK Kinase Assay (ELISA/TRF, PLC-γ substrate); assay type: biochemical; settings: read-out: ALK Potency
T1 construct: host or cells: baculovirus expression system
Summary of the method: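 Wells were coated with 10 μg/mL phospholipase C-γ substrate in TBS, and the reaction was started by adding 30 ng/ml ALK enzyme and run at 37° C for 15 minutes. Phosphorylated product was detected with Eu-N1-labeled PT66 antibody, and IC50 values came from sigmoidal variable-slope fits of percent inhibition against log concentration.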

JAK2 = target: T2, JAK2 (Homo sapiens, UniProt O60674); test: Recombinant Human JAK2 Kinase Assay (TRF); assay type: biochemical; settings: read-out: JAK2 Potency
T2 construct: host or cells: baculovirus expression system
Summary of the method: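 Baculovirus-expressed JAK2 (15 ng/ml) phosphorylated a biotinylated 15-mer peptide captured on Neutravidin, in 20 mM HEPES pH 7.2, 0.2 μM ATP, 1 mM MnCl2, 0.1% BSA, 2.5% DMSO final, 20 min at room temperature. Phosphoproduct detected by time-resolved fluorescence with Eu-N1-labelled PY100 antibody.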

[1] = ALK kinase inhibition, 1 μM ATP
[2] = JAK2 kinase inhibition, 0.2 μM ATP

T2 sequence (O60674 whole entry): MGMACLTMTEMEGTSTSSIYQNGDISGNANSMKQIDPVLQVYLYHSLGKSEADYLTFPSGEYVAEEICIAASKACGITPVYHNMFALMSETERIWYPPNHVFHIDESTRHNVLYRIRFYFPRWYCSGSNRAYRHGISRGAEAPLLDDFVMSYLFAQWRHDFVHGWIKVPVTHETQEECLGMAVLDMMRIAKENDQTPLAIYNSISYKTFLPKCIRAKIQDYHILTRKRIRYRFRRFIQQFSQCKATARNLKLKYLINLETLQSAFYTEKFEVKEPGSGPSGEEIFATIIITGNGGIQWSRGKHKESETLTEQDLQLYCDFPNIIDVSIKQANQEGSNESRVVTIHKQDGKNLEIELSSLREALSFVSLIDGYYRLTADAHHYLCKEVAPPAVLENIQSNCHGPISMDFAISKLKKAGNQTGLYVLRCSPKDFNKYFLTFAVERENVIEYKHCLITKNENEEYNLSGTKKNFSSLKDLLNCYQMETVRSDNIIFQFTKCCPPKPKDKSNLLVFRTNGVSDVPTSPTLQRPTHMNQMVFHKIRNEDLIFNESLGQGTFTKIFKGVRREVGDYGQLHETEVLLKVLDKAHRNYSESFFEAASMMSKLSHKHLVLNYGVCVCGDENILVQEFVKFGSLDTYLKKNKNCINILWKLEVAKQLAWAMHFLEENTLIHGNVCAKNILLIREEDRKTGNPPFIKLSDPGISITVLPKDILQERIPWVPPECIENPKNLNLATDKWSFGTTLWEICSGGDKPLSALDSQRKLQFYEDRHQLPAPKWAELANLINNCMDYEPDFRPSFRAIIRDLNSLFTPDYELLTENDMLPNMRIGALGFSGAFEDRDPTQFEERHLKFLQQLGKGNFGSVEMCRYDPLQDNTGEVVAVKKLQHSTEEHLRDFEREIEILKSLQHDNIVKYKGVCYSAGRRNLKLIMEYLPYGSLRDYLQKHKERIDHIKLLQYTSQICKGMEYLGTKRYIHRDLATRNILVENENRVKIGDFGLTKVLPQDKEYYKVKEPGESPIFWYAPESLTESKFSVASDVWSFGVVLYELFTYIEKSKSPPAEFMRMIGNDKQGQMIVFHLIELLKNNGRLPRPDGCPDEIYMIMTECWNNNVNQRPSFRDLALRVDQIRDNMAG
T1 sequence (Q9UM73 19-1620): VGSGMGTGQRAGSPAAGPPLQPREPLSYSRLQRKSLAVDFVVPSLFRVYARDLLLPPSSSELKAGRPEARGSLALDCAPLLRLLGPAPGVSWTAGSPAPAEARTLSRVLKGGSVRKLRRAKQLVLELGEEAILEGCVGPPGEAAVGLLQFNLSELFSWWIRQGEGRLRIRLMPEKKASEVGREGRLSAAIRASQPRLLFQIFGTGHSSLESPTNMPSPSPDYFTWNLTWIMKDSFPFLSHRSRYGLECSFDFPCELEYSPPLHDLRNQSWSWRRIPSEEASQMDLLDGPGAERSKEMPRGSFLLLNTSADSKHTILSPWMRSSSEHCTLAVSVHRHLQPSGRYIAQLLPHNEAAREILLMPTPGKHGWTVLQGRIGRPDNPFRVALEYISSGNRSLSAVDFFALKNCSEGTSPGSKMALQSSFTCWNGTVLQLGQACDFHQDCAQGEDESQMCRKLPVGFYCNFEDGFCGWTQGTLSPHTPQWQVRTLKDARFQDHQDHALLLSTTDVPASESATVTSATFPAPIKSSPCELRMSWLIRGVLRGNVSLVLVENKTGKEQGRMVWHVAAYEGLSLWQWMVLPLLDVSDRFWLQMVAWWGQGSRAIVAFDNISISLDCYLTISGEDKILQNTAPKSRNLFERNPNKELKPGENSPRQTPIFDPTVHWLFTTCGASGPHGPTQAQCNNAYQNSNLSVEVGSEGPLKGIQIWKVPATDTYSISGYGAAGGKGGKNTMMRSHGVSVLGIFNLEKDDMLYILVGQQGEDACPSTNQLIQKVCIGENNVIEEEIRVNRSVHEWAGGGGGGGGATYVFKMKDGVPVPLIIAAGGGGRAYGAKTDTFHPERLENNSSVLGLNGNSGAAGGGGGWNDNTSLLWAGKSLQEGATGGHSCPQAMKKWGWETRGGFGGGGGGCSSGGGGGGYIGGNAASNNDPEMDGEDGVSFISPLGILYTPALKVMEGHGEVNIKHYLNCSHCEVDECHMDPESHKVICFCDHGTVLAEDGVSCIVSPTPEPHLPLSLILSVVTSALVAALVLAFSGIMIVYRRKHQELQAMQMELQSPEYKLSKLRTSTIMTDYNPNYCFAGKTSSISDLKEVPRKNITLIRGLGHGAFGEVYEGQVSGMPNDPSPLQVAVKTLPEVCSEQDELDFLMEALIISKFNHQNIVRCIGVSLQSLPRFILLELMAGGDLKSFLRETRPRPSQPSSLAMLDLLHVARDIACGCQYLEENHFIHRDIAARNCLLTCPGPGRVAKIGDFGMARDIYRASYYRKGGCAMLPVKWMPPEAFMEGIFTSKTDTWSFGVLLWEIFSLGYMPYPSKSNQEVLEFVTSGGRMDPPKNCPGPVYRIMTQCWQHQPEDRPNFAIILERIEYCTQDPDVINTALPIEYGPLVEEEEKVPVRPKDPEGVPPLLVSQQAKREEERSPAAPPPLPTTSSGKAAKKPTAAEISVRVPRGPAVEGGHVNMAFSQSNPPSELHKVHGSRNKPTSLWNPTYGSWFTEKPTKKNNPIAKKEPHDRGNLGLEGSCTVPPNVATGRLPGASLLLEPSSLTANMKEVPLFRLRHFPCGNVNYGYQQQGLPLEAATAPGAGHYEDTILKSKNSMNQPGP

Row | SMILES | IC50 (ALK; [1]) | IC50 (JAK2; [2]) | IC50 (ALK; ALK Kinase Inhibition) | IC50 (JAK2; JAK2 Kinase Inhibition)
1 | NC(=O)CN1CCC(c2ccc(Nc3ncc4ccc(-c5cnccn5)n4n3)cc2)CC1 [Example 1564, 2-{4-[4-(7-Pyrazin-2-yl-pyrrolo[2,1-f][1,2,4]triazin-2-ylamino)-phenyl]-piperidin-1-yl}-acetamide] |  |  | 1000 to 10000 nM | < 100 nM
2 | CN(c1ccccc1-c1ccc2cnc(Nc3ccc4c(c3)ncn4CCN3CCOCC3)nn12)S(C)(=O)=O [Example 1335, N-Methyl-N-(2-{2-[1-(2-morpholin-4-yl-ethyl)-1H-benzimidazol-5-ylamino]-pyrrolo[2,1-f][1,2,4]triazin-7-yl}-phenyl)-methanesulfonamide] | 100 to 1000 nM | < 100 nM |  | 
3 | C[C@H](O)CN1CCN(c2cc([S@@+](C)[O-])c(Nc3ncc4ccc(-c5ccccc5N(C)S(C)(=O)=O)n4n3)cc2F)CC1 [Example 1485, (R,S)—N-[2-(2-{5-Fluoro-4-[4-((S)-2-hydroxy-propyl)-piperazin-1-yl]-2-methanesulfinyl-phenylamino}-pyrrolo[2,1-f][1,2,4]triazin-7-yl)-phenyl]-N-methyl-methanesulfonamide] |  |  | 100 to 1000 nM | < 100 nM
4 | CON=C1CCC(c2ccc(Nc3ncc4ccc(-c5cccc(S(=O)(=O)C(C)C)c5)n4n3)cc2)CC1 (centres unmarked) [Example 576, 4-(4-{7-[3-(Propane-2-sulfonyl)-phenyl]-pyrrolo[2,1-f][1,2,4]triazin-2-ylamino}-phenyl)-cyclohexanone O-methyl-oxime] | 1000 to 10000 nM | < 100 nM |  | 
5 | FC(F)(F)c1cc(-c2ccc3cnc(Nc4ccc(N5CCOCC5)cc4)nn23)ccc1Cl [Example 58, [7-(4-Chloro-3-trifluoromethyl-phenyl)-pyrrolo[2,1-f][1,2,4]triazin-2-yl]-(4-morpholin-4-yl-phenyl)-amine] |  |  | 1000 to 10000 nM | < 100 nM
6 | COc1cc(N(C)C(=O)CN2CCOCC2)ccc1Nc1ncc2ccc(-c3ccccc3N(C)S(C)(=O)=O)n2n1 [Example 473, N-(4-{7-[2-(Methanesulfonyl-methyl-amino)-phenyl]-pyrrolo[2,1-f][1,2,4]triazin-2-ylamino}-3-methoxy-phenyl)-N-methyl-2-morpholin-4-yl-acetamide] | < 100 nM | 1000 to 10000 nM |  | 
7 | COc1ccccc1-c1ccc2cnc(Nc3cccc(C4(O)CCNCC4)c3)nn12 [Example 1565, 4-{3-[7-(2-Methoxy-phenyl)-pyrrolo[2,1-f][1,2,4]triazin-2-ylamino]-phenyl}-piperidin-4-ol] |  |  | < 100 nM | < 100 nM
8 | COc1cc(N2CCCC(N3CCN(C(=O)OCc4ccccc4)CC3)C2)ccc1Nc1ncc2ccc(-c3ccccc3OC)n2n1 (centres unmarked) [Example 234, 4-(1-{3-Methoxy-4-[7-(2-methoxy-phenyl)-pyrrolo[2,1-f][1,2,4]triazin-2-ylamino]-phenyl}-piperidin-3-yl)-piperazine-1-carboxylic acid benzyl ester] |  |  | 100 to 1000 nM | 1000 to 10000 nM
9 | COc1ccccc1-c1ccc2cnc(Nc3cccc(C4CCN(C)CC4)c3OC)nn12 [Example 775, [2-Methoxy-3-(1-methyl-piperidin-4-yl)-phenyl]-[7-(2-methoxy-phenyl)-pyrrolo[2,1-f][1,2,4]triazin-2-yl]-amine] | < 100 nM | < 100 nM |  | 
10 | COc1cc(C2CCN(C(=O)CN)CC2)ccc1Nc1ncc2ccc(-c3ccccc3OC)n2n1 [Example 823, 2-Amino-1-(4-{3-methoxy-4-[7-(2-methoxy-phenyl)-pyrrolo[2,1-f][1,2,4]triazin-2-ylamino]-phenyl}-piperidin-1-yl)-ethanone] | < 100 nM | 100 to 1000 nM |  | 
11 | COc1cc(CN2CCC(O)CC2)ccc1Nc1ncc2ccc(-c3ccccc3N(C)S(C)(=O)=O)n2n1 [Example 1234, N-(2-{2-[4-(4-Hydroxy-piperidin-1-ylmethyl)-2-methoxy-phenylamino]-pyrrolo[2,1-f][1,2,4]triazin-7-yl}-phenyl)-N-methyl-methanesulfonamide] | < 100 nM | 1000 to 10000 nM |  | 

Next, values leading:

Row | IC50 (ALK; [1]) | IC50 (JAK2; [2]) | IC50 (ALK; ALK Kinase Inhibition) | IC50 (JAK2; JAK2 Kinase Inhibition) | SMILES
12 | < 100 nM | 100 to 1000 nM |  |  | COc1cc2c(cc1Nc1ncc3ccc(-c4ccccc4N(C)S(C)(=O)=O)n3n1)CCCC(N1CCOCC1)C2 (centres unmarked) [Example 993, N-{2-[2-(3-Methoxy-6-morpholin-4-yl-6,7,8,9-tetrahydro-5H-benzocyclohepten-2-ylamino)-pyrrolo[2,1-f][1,2,4]triazin-7-yl]-phenyl}-N-methyl-methanesulfonamide]
13 | 1000 to 10000 nM | < 100 nM |  |  | Cn1cc(-c2ccc3cnc(Nc4cccc(N5CCCC5=O)c4)nn23)cn1 [Example 967, 1-{3-[7-(1-Methyl-1H-pyrazol-4-yl)-\pyrrolo[2,1-f][1,2,4]triazin-2-ylamino]-phenyl}-pyrrolidin-2-one]
14 | 100 to 1000 nM | < 100 nM |  |  | CN(c1ccccc1-c1ccc2cnc(Nc3ccc4c(cnn4C)c3)nn12)S(C)(=O)=O [Example 1339, N-Methyl-N-{2-[2-(1-methyl-1H-indazol-5-ylamino)-pyrrolo[2,1-f][1,2,4]triazin-7-yl]-phenyl}-methanesulfonamide]
15 | 1000 to 10000 nM | 100 to 1000 nM |  |  | COc1ccc(CN2CCOCC2)cc1Nc1ncc2ccc(-c3ccccc3OC)n2n1 [Example 499, (2-Methoxy-5-morpholin-4-ylmethyl-phenyl)-[7-(2-methoxy-phenyl)-pyrrolo[2,1-f][1,2,4]triazin-2-yl]-amine]
16 | 100 to 1000 nM | < 100 nM |  |  | CC(C)(C)NS(=O)(=O)c1cccc(-c2ccc3cnc(Nc4cccc(NS(C)(=O)=O)c4)nn23)c1 [Example 889, N-tert-Butyl-3-[2-(3-methanesulfonylamino-phenylamino)-pyrrolo[2,1-f][1,2,4]triazin-7-yl]-benzenesulfonamide]
17 | 100 to 1000 nM | < 100 nM |  |  | COc1ccccc1-c1ccc2cnc(Nc3ccc4c(c3)OCC(=O)N4C)nn12 [Example 647, 7-[7-(2-Methoxy-phenyl)-pyrrolo[2,1-f][1,2,4]triazin-2-ylamino]-4-methyl-4H-benzo[1,4]oxazin-3-one]
18 | < 100 nM | 100 to 1000 nM |  |  | COc1cc(C2CCN(C(C)C(N)=O)CC2)ccc1Nc1ncc2ccc(-c3ccccc3OC)n2n1 (centres unmarked) [Example 1275, 2-(4-{3-Methoxy-4-[7-(2-methoxy-phenyl)-pyrrolo[2,1-f][1,2,4]triazin-2-ylamino]-phenyl}-piperidin-1-yl)-propionamide]
19 |  |  | > 10000 nM | < 100 nM | Clc1cccc(-c2ccc3cnc(Nc4ccc(N5CCOCC5)nc4)nn23)c1 [Example 79, [7-(3-Chloro-phenyl)-pyrrolo[2,1-f][1,2,4]triazin-2-yl]-(6-morpholin-4-yl-pyridin-3-yl)-amine]
20 |  |  | > 10000 nM | < 100 nM | CS(=O)(=O)c1ccc(-c2ccc3cnc(Nc4ccc(N5CCCCC5)cc4)nn23)cc1 [Example 61, [7-(4-Methanesulfonyl-phenyl)-pyrrolo[2,1-f][1,2,4]triazin-2-yl]-(4-piperidin-1-yl-phenyl)-amine]
21 |  |  | 100 to 1000 nM | < 100 nM | COc1ccc(Cl)cc1-c1ccc2cnc(Nc3cccc(C(=O)N4CCOCC4)c3)nn12 [Example 328, {3-[7-(5-Chloro-2-methoxy-phenyl)-pyrrolo[2,1-f][1,2,4]triazin-2-ylamino]-phenyl}-morpholin-4-yl-methanone]
22 | 1000 to 10000 nM | < 100 nM |  |  | CC(C)c1nc2ccc(Nc3ncc4ccc(-c5cccc(S(=O)(=O)NC(C)(C)C)c5)n4n3)cc2[nH]1 [Example 1329, N-tert-Butyl-3-[2-(2-isopropyl-3H-benzimidazol-5-ylamino)-pyrrolo[2,1-f][1,2,4]triazin-7-yl]-benzenesulfonamide]
23 |  |  | 1000 to 10000 nM | < 100 nM | CC(C)(C)NS(=O)(=O)c1cccc(-c2ccc3cnc(Nc4cccc(C(N)=O)c4)nn23)c1 [Example 1390, 3-[7-(3-tert-Butylsulfamoyl-phenyl)-pyrrolo[2,1-f][1,2,4]triazin-2-ylamino]-benzamide]
24 | 100 to 1000 nM | < 100 nM |  |  | CN(c1ccccc1-c1ccc2cnc(Nc3ccc4[nH]ncc4c3)nn12)S(C)(=O)=O [Example 1338, N-{2-[2-(1H-Indazol-5-ylamino)-pyrrolo[2,1-f][1,2,4]triazin-7-yl]-phenyl}-N-methyl-methanesulfonamide]
25 |  |  | 1000 to 10000 nM | < 100 nM | CS(=O)(=O)c1cccc(-c2ccc3cnc(Nc4ccc5[nH]c(CN6CCOCC6)nc5c4)nn23)c1 [Example 1537, [7-(3-Methanesulfonyl-phenyl)-pyrrolo[2,1-f][1,2,4]triazin-2-yl]-(2-morpholin-4-ylmethyl-1H-benzimidazol-5-yl)-amine]
26 |  |  | 1000 to 10000 nM | < 100 nM | CS(=O)(=O)Nc1cccc(-c2ccc3cnc(Nc4ccc(N5CCOCC5)cc4F)nn23)c1 [Example 371, N-{3-[2-(2-Fluoro-4-morpholin-4-yl-phenylamino)-pyrrolo[2,1-f][1,2,4]triazin-7-yl]-phenyl}-methanesulfonamide]
27 | < 100 nM | 100 to 1000 nM |  |  | COc1cc(C2CCCN(CC(N)=O)C2)ccc1Nc1ncc2ccc(-c3ccccc3N(C)S(C)(=O)=O)n2n1 (racemic) [Example 861, (±)-2-[3-(4-{7-[2-(Methanesulfonyl-methyl-amino)-phenyl]-pyrrolo[2,1-f][1,2,4]triazin-2-ylamino}-3-methoxy-phenyl)-piperidin-1-yl]-acetamide]
28 | 1000 to 10000 nM | < 100 nM |  |  | CN1CCN(c2ccc(Nc3ncc4ccc(Sc5ccncc5)n4n3)cc2)CC1 [Example 1117, [4-(4-Methyl-piperazin-1-yl)-phenyl]-[7-(pyridin-4-ylsulfanyl)-pyrrolo[2,1-f][1,2,4]triazin-2-yl]-amine]

Source: patent US8471005B2 (Cephalon, Inc., priority 2008, dated 2013)
